Columns and labels:
[1] = Thermodynamic stability, stress test storage, XRPD; type: physicochemical; conditions: 40° C.±2° C./RH75%±5%, aluminum-plastic composite film bag, 0 m, 1 m, 2 ms, 3 ms, or 6 ms
Description: About 500 g of the Crystalline Form of Formula I was placed into a bag of aluminum-plastic composite film, and the bag was stored under stress test conditions of 40° C.±2° C./RH75%±5% for 0 m, 1 m, 2 ms, 3 ms, or 6 ms.

physchem = conditions: water, thermodynamic from solid
Description: (§1) Kinetic solubility of the Crystalline Form of Formula I and N-(4-(2,3-dihydro-1H-pyrrolo[2,3-b]pyridin-4-yloxy)-3-fluorophenyl)-5-(4-fluorophenyl)-4-oxo-1,4-dihydropyridine-3-carboxamide (the Compound of Formula II) was studied in H2O at RT. After stirring approximate 4 mg solid in per 2 mL H2O at RT for a set amount of time, 0.6 mL suspension was centrifuged with the residual solids analyzed by XRPD and the concentrations in supernatants measured by high performance liquid chromatography (HPLC).

[2] = Pharmacokinetic study, oral administration to fasted SD rats; conditions: for AUC(0-inf) / AUC(0-t) / Cmax / Tmax / half-life: SD, rat, plasma, po, 50 mg/kg
Description: (§2) The Compound of Formula II and the Crystalline Form of Formula I were ground to fine particles. The material content (purity) was not less than 99.0%. Sodium carboxymethyl cellulose was medical supply graded.
(§3) Experimental animals: SD rats were divided to a Compound of Formula II group and a Crystalline Form of Formula I group, with both groups consisting of three males and three females.
(§4) Pharmaceutical preparation: each compound was formulated in 0.5% (w/v) aqueous sodium carboxymethyl cellulose and the final concentration of each compound was 10 mg/mL.
(§5) Administration and sample collection: each suspension was administered orally to fasted SD rats at a dose equivalent to 50 mg/kg the Compound of Formula II in a dose volume of 5 mL/kg. The blood samples were collected in EDTA-K pre anticoagulant tubes just before dosing (0 h) and at 0.5, 1, 1.5, 2, 4, 6, 8 and 24 hrs after dosing. The plasma from these samples was separated by centrifugation at 3000 rpm for 10 min at 4° C. The plasma samples were collected and stored at −80° C. until analysis.
(§6) Samples were analyzed by HPLC. Chemical ingredients were separated on a C18 DIKMA Platisil column (250×4.6 mm, 5 μm). An Isocratic mobile phase system consisting of acetonitrile-water (55:45) with 0.02 mol/L of sodium dihydrogen phosphate (adjusted pH to 6.0 by using sodium hydroxide solution) employed for sample analysis. The sample injection volume was 20 μL and the detection wavelength was 302 nm.

in vivo = conditions: SD, rat, po, 50 mg/kg
Description: as §2, §3, §4, §5, §6

[3] = Kinetic solubility in H2O at RT; conditions: for pH / Form Change: H2O, RT; for Form Change: residual solids by XRPD
Description: as §1

[4] = Long term stability storage, XRPD; type: physicochemical; conditions: 25° C.±2° C./RH60%±10%, aluminum-plastic composite film bag, 0 m to 36 ms
Description: About 500 g of the Crystalline Form of Formula I was placed into a bag of aluminum-plastic composite film, and the bag was stored under conditions of 25° C.±2° C./RH60%±10% for 0 m, 3 ms, 6 ms, 9 ms, 12 ms, 18 ms, 24 ms, or 36 ms.

[5] = water, thermodynamic from solid

## O=C(Nc1ccc(Oc2ccnc3c2CCN3)c(F)c1)c1c[nH]cc(-c2ccc(F)cc2)c1=O.O=C(O)/C=C\C(=O)O [The Crystalline Form of Formula I, N-(4-(2,3-dihydro-1H-pyrrolo[2,3-b]pyridin-4-yloxy)-3-fluorophenyl)-5-(4-fluorophenyl)-4-oxo-1,4-dihydropyridine-3-carboxamide maleate]
[1]
  Crystalline Form determined by XRPD after storage (thermodynamic stability): purely the Crystalline Form of formula I
physchem
  solubility kinetic at 1 h: 59 µg/mL
  solubility kinetic at 4 h: 47.8 µg/mL
  solubility kinetic at 24 h: 98.3 µg/mL
[2]; SD rats, oral, dose equivalent to 50 mg/kg the Compound of Formula II
  Absorption compared with the Compound of Formula II: higher absorption than the Compound of Formula II
In vivo; female
  AUC(0-inf): 49300 ± 22200 ng·h/mL
  AUC(0-t): 46400 ± 21600 ng·h/mL
  Cmax: 7500 ± 700 ng/mL
  Tmax: 2 h
  half-life: 3.7 ± 2.8 h
In vivo; male
  AUC(0-inf): 17000 ± 6100 ng·h/mL
  AUC(0-t): 15900 ± 5100 ng·h/mL
  Cmax: 3900 ± 700 ng/mL
  Tmax: 2.7 ± 1.2 h
  half-life: 1.7 ± 0.9 h
[3]; 1 h
  pH: 4.3
  Form Change: No
[3]; 4 hrs
  pH: 4.1
  Form Change: No
[3]; 24 hrs
  pH: 3.8
  Form Change: No
[4]
  Crystalline Form determined by XRPD after storage (long term stability): purely the Crystalline Form of formula I

## O=C(Nc1ccc(Oc2ccnc3c2CCN3)c(F)c1)c1c[nH]cc(-c2ccc(F)cc2)c1=O [The Compound of Formula II, N-(4-(2,3-dihydro-1H-pyrrolo[2,3-b]pyridin-4-yloxy)-3-fluorophenyl)-5-(4-fluorophenyl)-4-oxo-1,4-dihydropyridine-3-carboxamide]
[2]; female
  AUC(0-inf): 18200 ± 4600 ng·h/mL
  AUC(0-t): 9700 ± 6300 ng·h/mL
  Cmax: 1900 ± 1100 ng/mL
  Tmax: 6 ± 2 h
  half-life: 4.7 ± 3.7 h
[2]; male
  AUC(0-inf): 17100 ± 7000 ng·h/mL
  AUC(0-t): 10100 ± 2900 ng·h/mL
  Cmax: 2200 ± 600 ng/mL
  Tmax: 4.5 ± 2.6 h
  half-life: 6.4 ± 2.6 h
[3]; 1 h
  pH: 7.2
  Form Change: No
[3]; 4 hrs
  pH: 7.3
  Form Change: No
[3]; 24 hrs
  pH: 7.3
  Form Change: No
[3]; [5]
  solubility kinetic at 1 h: 0.8 µg/mL
  solubility kinetic at 4 h: 1.1 µg/mL
  solubility kinetic at 24 h: 0.5 µg/mL
